Data on 19 molecules can be found in patent US8859580B2 (Boehringer Ingelheim International GmbH, priority 2007, dated 2014).

This assay has as its target T1, 11β-HSD1 (Homo sapiens, UniProt P28845).
T1 construct: detecting cortisol generated from cortisterone by human liver microsomes; from tissue; host or cells: human liver microsomes
The experiment in a line: In vitro inhibition of 11β-HSD1, HTRF detection of cortisol generated from cortisone by human liver microsomes. As to conditions: 1 hour at 37° C., pH 6.0, NADPH 200 μM, cortisone 80 nM, inhibition relative to carbenoxolone signal. Format: biochemical. The essentials: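 Cortisol formed from cortisone by human liver microsomes quantified by competitive HTRF immunoassay (XL665-cortisol, Eu-cryptate anti-cortisol antibody), 2 h detection, Em665/Em615 ratio converted via cortisol calibration curve. Percent inhibition relative to carbenoxolone signal; IC50 from curves.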
(In general: TR-FRET usually uses a lanthanide donor and a delayed reading to cut background.)

Read-outs that look alike come from different tables or passages of the source.

T1 sequence (P28845 whole entry): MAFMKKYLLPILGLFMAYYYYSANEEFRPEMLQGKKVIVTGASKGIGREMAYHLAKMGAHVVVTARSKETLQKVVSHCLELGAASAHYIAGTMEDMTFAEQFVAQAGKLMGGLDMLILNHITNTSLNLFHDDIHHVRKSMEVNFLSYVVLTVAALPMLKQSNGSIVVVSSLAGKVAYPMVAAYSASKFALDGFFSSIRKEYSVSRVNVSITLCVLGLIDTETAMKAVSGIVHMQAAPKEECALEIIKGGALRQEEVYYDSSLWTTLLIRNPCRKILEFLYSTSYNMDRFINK

Usually IC50 stands for the concentration needed to halve the response being measured. In the case of `Cc1cnc2cc3c(cc2n1)[C@]1(C)CCN(C(=O)c2ccc4nc[nH]c4c2)[C@H](C3)C1(C)C` [Example 255, (3H-Benzoimidazol-5-yl)-[(7R,11S)-6,7,8,9,10,11-hexahydro-2,11,13,13-tetramethyl-7,11-methano-pyrazino[2,3-i][3]benzazocin-8-yl]-methanone], the IC50 (11β-HSD IC50 (nM)) was determined as 742 nM. On the same count and under the same terms, next, `Cn1cc(C(=O)N2CC[C@@]3(C)c4ccccc4C[C@@H]2C3(C)C)c2ccccc21` [Example 256, (1-Methyl-1H-indol-3-yl)-[(2R,6S)-6,11,11-trimethyl-1,2,5,6-tetrahydro-4H-2,6-methano-benzo[d]azocin-3-yl]-methanone]: 222 nM; `Cn1nnc2cc3c(cc21)[C@]1(C)CCN(C(=O)c2ccc4nc[nH]c4c2)[C@H](C3)C1(C)C` [Example 257, (3H-Benzoimidazol-5-yl)-[(6R,10S)-5,6,7,8,9,10-hexahydro-1,10,12,12-tetramethyl-6,10-methano-triazolo[5,4-i][3]benzazocin-7-yl]-methanone]: 209 nM; `Cn1nnc2cc3c(cc21)C[C@H]1N(C(=O)c2ccc4nc[nH]c4c2)CC[C@]3(C)C1(C)C` [Example 258, (3H-Benzoimidazol-5-yl)-[(6R,10S)-5,6,7,8,9,10-hexahydro-3,10,12,12-tetramethyl-6,10-methano-triazolo[4,5-i][3]benzazocin-7-yl]-methanone]: 33 nM. Still for that read-out and setting: the result for `CC1(C)[C@H]2Cc3ccccc3[C@]1(C)CCN2C(=O)c1c[nH]c2ccccc12` [Example 259, (1H-Indol-3-yl)-[(2R,6S)-6,11,11-trimethyl-1,2,5,6-tetrahydro-4H-2,6-methano-benzo[d]azocin-3-yl]-methanone] reads 115 nM; that for `CC(O)(c1cccc(C(=O)N2CC[C@@]3(C)c4cccc(O)c4C[C@@H]2C3(C)C)c1)C(F)(F)F` (stereo partly drawn) [Example 260, [(2R,6S)-10-Hydroxy-6,11,11-trimethyl-1,2,5,6-tetrahydro-4H-2,6-methano-benzo[d]azocin-3-yl]-[3-(2,2,2-trifluoro-1-hydroxy-1-methyl-ethyl)-phenyl]-methanone], 181 nM.

With `COc1ccc2c(c1[N+](=O)[O-])[C@]1(C)CCN(C(=O)c3ccc4nc[nH]c4c3)[C@H](C2)[C@H]1C` [Example 261, (3H-Benzoimidazol-5-yl)-[(2R,6R,11S)-8-methoxy-6,11-dimethyl-7-nitro-1,2,5,6-tetrahydro-4H-2,6-methano-benzo[d]azocin-3-yl]-methanone], the IC50 (11β-HSD IC50 (nM)) came out at 47 nM. The same measure, in the same setting: next, `Cc1nccc(-c2ccc3c(c2)[C@]2(C)CCN(C(=O)c4ccc5nc[nH]c5c4)[C@H](C3)[C@H]2C)n1` [Example 262, (3H-Benzoimidazol-5-yl)-[(2R,6R,11S)-6,11-dimethyl-8-(2-methyl-pyrimidin-4-yl)-1,2,5,6-tetrahydro-4H-2,6-methano-benzo[d]azocin-3-yl]-methanone]: 73 nM.

`Cc1ccc(-c2ccc3c(c2)[C@]2(C)CCN(C(=O)c4ccc5nc[nH]c5c4)[C@H](C3)[C@H]2C)nn1` [Example 263, (3H-Benzoimidazol-5-yl)-[(2R,6R,11S)-6,11-dimethyl-8-(6-methyl-pyridazin-3-yl)-1,2,5,6-tetrahydro-4H-2,6-methano-benzo[d]azocin-3-yl]-methanone] yielded an IC50 (11β-HSD IC50 (nM)) of 71 nM. The same measure, in the same setting: next, `C[C@@H]1[C@H]2Cc3ccc(-c4ccncn4)cc3[C@]1(C)CCN2C(=O)c1ccc2nc[nH]c2c1` [Example 264, (3H-Benzoimidazol-5-yl)-[(2R,6R,11S)-6,11-dimethyl-8-pyrimidin-4-yl-1,2,5,6-tetrahydro-4H-2,6-methano-benzo[d]azocin-3-yl]-methanone]: 78 nM. In the case of `CC1(C)[C@H]2Cc3cc4nn[nH]c4cc3[C@]1(C)CCN2C(=O)c1ccc2nc[nH]c2c1` [Example 265, (3H-Benzoimidazol-5-yl)-[(6R,10S)-5,6,7,8,9,10-hexahydro-10,12,12-trimethyl-6,10-methano-1H-triazolo[5,4-i][3]benzazocin-7-yl]-methanone], under “11β-HSD IC50 (nM)”, the IC50 was 22 nM. As for `CC1(C)[C@H]2Cc3cc4nc(-c5cnccn5)[nH]c4cc3[C@]1(C)CCN2C(=O)c1ccc2nc[nH]c2c1` [Example 266, (3H-Benzoimidazol-5-yl)-[(6R,10S)-5,6,7,8,9,10-hexahydro-10,12,12-trimethyl-2-pyrazin-2-yl-6,10-methano-imidazo[5,4-i][3]benzazocin-7-yl]-methanone], the IC50 (11β-HSD IC50 (nM)) is 42 nM.

Take `COc1ccc2c(c1N)[C@]1(C)CCN(C(=O)c3ccc4nc[nH]c4c3)[C@H](C2)[C@H]1C` [Example 267, (3H-Benzoimidazol-5-yl)-[(2R,6R,11S)-7-amino-8-methoxy-6,11-dimethyl-1,2,5,6-tetrahydro-4H-2,6-methano-benzo[d]azocin-3-yl]-methanone]: for the setting “11β-HSD IC50 (nM)”, half-maximal inhibition (IC50) was put at 66 nM. On the same count and under the same terms, next, `COc1ccc2c(c1NS(C)(=O)=O)[C@]1(C)CCN(C(=O)c3ccc4nc[nH]c4c3)[C@H](C2)[C@H]1C` [Example 268, N-[(2R,6R,11S)-3-(3H-Benzoimidazole-5-carbonyl)-8-methoxy-6,11-dimethyl-1,2,3,4,5,6-hexahydro-2,6-methano-benzo[d]azocin-7-yl]-methanesulfonamide]: 931 nM; `CC(=O)N1CCC(c2nc3cc4c(cc3[nH]2)[C@]2(C)CCN(C(=O)c3ccc5nc[nH]c5c3)[C@H](C4)C2(C)C)CC1` [Example 269, [(6R,10S)-2-(1-Acetyl-piperidin-4-yl)-5,6,7,8,9,10-hexahydro-10,12,12-trimethyl-6,10-methano-imidazo[5,4-i][3]benzazocin-7-yl]-(3H-benzoimidazol-5-yl)-methanone]: 63 nM. The same measure, in the same setting: next, `COc1ccc2c(c1-n1cccc1)[C@]1(C)CCN(C(=O)c3ccc4nc[nH]c4c3)[C@H](C2)[C@H]1C` [Example 270, (3H-Benzoimidazol-5-yl)-[(2R,6R,11S)-8-methoxy-6,11-dimethyl-7-pyrrol-1-yl-1,2,5,6-tetrahydro-4H-2,6-methano-benzo[d]azocin-3-yl)-methanone]: 99 nM. For `CC1(C)[C@H]2Cc3cc4nc(C5CC5)[nH]c4cc3[C@]1(C)CCN2C(=O)c1ccc2nc[nH]c2c1` [Example 271, (3H-Benzoimidazol-5-yl)-[(6R,10S)-2-cyclopropyl-5,6,7,8,9,10-hexahydro-10,12,12-trimethyl-6,10-methano-imidazo[5,4-i][3]benzazocin-7-yl]-methanone], 50 nM corresponded to half-maximal inhibition (11β-HSD IC50 (nM)) (IC50).

As for `Cn1cc(C2=NC3=CC4=C(CC3=N2)C[C@H]2N(C(=O)c3ccc5nc[nH]c5c3)CC[C@]4(C)C2(C)C)ccc1=O` [Example 272, (3H-Benzoimidazol-5-yl)-[(6R,10S)-5,6,7,8,9,10-hexahydro-10,12,12-trimethyl-2-(1-methyl-6-oxo-1,6-dihydro-pyridin-3-yl)-6,10-methano-imidazo[5,4-i][3]benzazocin-7-yl]-methanone], the IC50 (read-out: 11β-HSD IC50) amounted to 44 nM. `CC(C)(C)c1nc2cc3c(cc2[nH]1)[C@]1(C)CCN(C(=O)c2ccc4nc[nH]c4c2)[C@H](C3)C1(C)C` [Example 273, (3H-Benzoimidazol-5-yl)-[(6R,10S)-2-tert-butyl-5,6,7,8,9,10-hexahydro-10,12,12-trimethyl-6,10-methano-imidazo[5,4-i][3]benzazocin-7-yl]-methanone] yielded an IC50 (11β-HSD IC50 (nM)) of 35 nM.
